Assay results published in the NIST ThermoML archive (doi:10.1016/j.jct.2004.12.001).

Experiments:
[1] = 303.15 K, Liquid; for mass density: 101 kPa; for speed of sound: 101.33 kPa, Frequency=2 MHz
[2] = xn = mol fraction of the nth substance listed; conditions: 303.15 K, 101 kPa, Liquid; for speed of sound: Frequency=2 MHz

Cc1ccccc1 [toluene]
[1]
Conditions	mass density [kg/m3]	speed of sound [m/s]
–	866.7	1271.9

c1ccccc1 [benzene]
[1]
Conditions	mass density [kg/m3]	speed of sound [m/s]
–	872	1257

Cc1ccccc1 [toluene] + CC(CC(C)(C)C)CP(=O)(O)CC(C)CC(C)(C)C
[2], x2 = 0
Conditions	mass density [kg/m3]	speed of sound [m/s]
–	866.7	1271.9

c1ccccc1 [benzene] + CC(CC(C)(C)C)CP(=O)(O)CC(C)CC(C)(C)C
[2], x2 = 0
Conditions	mass density [kg/m3]	speed of sound [m/s]
–	872	1257

CC(CC(C)(C)C)CP(=O)(O)CC(C)CC(C)(C)C (stereo unspecified) [bis-(2,4,4-trimethylpentyl) phosphinic acid] + Cc1ccccc1
[2]
Conditions	mass density [kg/m3]	speed of sound [m/s]
x1 = 0.0781	875.6	1266.5
x1 = 0.1268	882.5	1266.9
x1 = 0.1843	888	1267.5
x1 = 0.2532	893.8	1268.2
x1 = 0.3371	899.7	1269.2
x1 = 0.4416	900.9	1274.6
x1 = 0.5755	906.4	1278
x1 = 0.7531	913.1	1284
x1 = 1	924.7	1290.4

CC(CC(C)(C)C)CP(=O)(O)CC(C)CC(C)(C)C (stereo unspecified) [bis-(2,4,4-trimethylpentyl) phosphinic acid] + c1ccccc1
[2]
Conditions	mass density [kg/m3]	speed of sound [m/s]
x1 = 0.0666	886.8	1252.2
x1 = 0.109	891.9	1255.2
x1 = 0.1599	895.6	1258.1
x1 = 0.2222	901.1	1259.1
x1 = 0.2999	904.9	1261.3
x1 = 0.3999	908.4	1263.2
x1 = 0.5332	912.3	1266.8
x1 = 0.7199	915.3	1274.3
x1 = 1	924.7	1290.4

CC(CC(C)(C)C)CP(=O)(O)CC(C)CC(C)(C)C (stereo unspecified) [bis-(2,4,4-trimethylpentyl) phosphinic acid]
[1]
Conditions	mass density [kg/m3]	speed of sound [m/s]
–	924.7	1290.4
